Measured values published in ChEMBL document CHEMBL1136204, “Thymidine and thymidine-5'-O-monophosphate analogues as inhibitors of Mycobacterium tuberculosis thymidylate kinase” (Bioorg Med Chem Lett, 2003).

Key:
Thymidylate kinase [1] = target: T1, Thymidylate kinase (Mycobacterium tuberculosis, UniProt P9WKE1); assay: Inhibitory activity against thymidine monophosphate kinase (TMPK) in Mycobacterium tuberculosis
T1 sequence (P9WKE1 whole entry): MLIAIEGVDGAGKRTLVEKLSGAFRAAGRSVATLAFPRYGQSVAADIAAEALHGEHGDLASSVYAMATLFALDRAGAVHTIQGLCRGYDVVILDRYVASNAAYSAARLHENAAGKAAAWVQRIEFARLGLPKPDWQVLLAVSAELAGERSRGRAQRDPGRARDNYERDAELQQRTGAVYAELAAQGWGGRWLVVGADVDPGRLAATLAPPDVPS

Thymidylate kinase [2] = target: T1, Thymidylate kinase; assay: Inhibitory activity against thymidine monophosphate kinase (TMPKmt) in Mycobacterium tuberculosis using HPLC chromatography test

Row | Structure (SMILES) | Ki (Thymidylate kinase [1]) [µM] | Ki (Thymidylate kinase [2]) [µM]
1 | O=c1[nH]c(=O)n([C@@H]2O[C@H](CO)[C@@H](O)[C@H]2O)cc1F [5-FLUOROURIDINE] | 521 | –
2 | CC(=O)NC[C@H]1O[C@@H](n2cc(C)c(=O)[nH]c2=O)C[C@@H]1O | 90 | –
3 | Cc1cn([C@H]2C[C@H](N)[C@@H](CO)O2)c(=O)[nH]c1=O [3-AMINO- 3-DEOXYTHYMIDINE] | 230 | –
4 | CCc1cn([C@H]2C[C@H](O)[C@@H](CO)O2)c(=O)[nH]c1=O [EDOXUDINE] | 1140 | –
5 | Cc1cn([C@@H]2CO[C@H](COP(=O)(O)O)[C@@H](O)C2)c(=O)[nH]c1=O | 150 | –
6 | O=c1[nH]c(=O)n([C@H]2C[C@H](O)[C@@H](COP(=O)(O)O)O2)cc1-c1cccs1 | 270 | –
7 | C[C@@H]1CC[C@H](n2cc(Br)c(=O)[nH]c2=O)O1 | 5 | –
8 | Cc1cn([C@@H]2O[C@H](CO)[C@@H](O)[C@H]2F)c(=O)[nH]c1=O | 122 | –
9 | Cc1cn([C@@H]2O[C@H](COP(=O)(O)O)[C@@H](N)[C@H]2O)c(=O)[nH]c1=O | 45 | –
10 | Cc1cn([C@H]2C[C@H](F)[C@@H](CO)O2)c(=O)[nH]c1=O [ALOVUDINE] | 28 | –
11 | Cc1cn([C@@H]2O[C@H](CO)[C@@H](N=C(N)N)[C@H]2O)c(=O)[nH]c1=O | 140 | –
12 | Cc1cn([C@@H]2O[C@H](C)[C@@H](N)[C@H]2O)c(=O)[nH]c1=O | 1900 | –
13 | O=c1[nH]c(=O)n([C@H]2C[C@H](O)[C@@H](CO)O2)cc1C(F)(F)F [TRIFLURIDINE] | 97 | –
14 | C[C@H]1O[C@@H](n2cc(F)c(=O)[nH]c2=O)[C@H](O)[C@@H]1O [DOXIFLURIDINE] | 560 | –
15 | O=c1[nH]c(=O)n([C@H]2C[C@H](O)[C@@H](COP(=O)(O)O)O2)cc1Cc1ccccc1 | 28 | –
16 | Cc1cn([C@H]2C[C@H](O)[C@@H](CN=[N+]=[N-])O2)c(=O)[nH]c1=O | 7 | –
17 | Cc1cn([C@@H]2O[C@H](CO)[C@@H](O)[C@@H]2O)c(=O)[nH]c1=O | 238 | –
18 | Cc1cn([C@H]2C[C@H](O)[C@@H](COP(=O)(O)OP(=O)(O)OP(=O)(O)OP(=O)(O)OP(=O)(O)OC[C@H]3O[C@@H](n4cnc5c(N)ncnc54)[C@H](O)[C@@H]3O)O2)c(=O)[nH]c1=O | – | 30
19 | Cc1cn([C@@H]2O[C@H](CI)[C@@H](N=[N+]=[N-])[C@H]2O)c(=O)[nH]c1=O | 490 | –
20 | O=c1[nH]c(=O)n([C@H]2C[C@H](O)[C@@H](COP(=O)(O)O)O2)cc1-c1ccco1 | 140 | –
21 | O=c1[nH]c(=O)n([C@H]2C[C@H](O)[C@@H](COP(=O)(O)O)O2)cc1CO | 110 | –
22 | Cc1cn([C@@H]2O[C@H](COP(=O)(O)O)[C@@H](O)[C@H]2N)c(=O)[nH]c1=O | 120 | –
23 | Cc1cn([C@H]2C[C@H](O)[C@@H](CN)O2)c(=O)[nH]c1=O | 12 | –
24 | Cc1cn([C@H]2C[C@H](O)[C@@H](CO)O2)c(=O)[nH]c1=O [DOXRIBTIMINE] | 715 | –
